Data: PubChem BioAssay (NCI)
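Following 48 hours of exposure in 96-well plates, responses at five concentrations were used to interpolate endpoints linearly. GI50: concentration for 50% inhibition of growth. TGI is the concentration that stops growth completely.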

Experiments:
Test in all cases: inhibition of tumour cell growth, NCI panel, 48 h
MALME-3M melanoma = tested on: MALME-3M melanoma
UACC-257 melanoma = tested on: UACC-257 melanoma
DU-145 prostate = tested on: DU-145 prostate
SK-MEL-2 melanoma = tested on: SK-MEL-2 melanoma
K-562 leukemia = tested on: K-562 leukemia
ACHN renal = tested on: ACHN renal
CAKI-1 renal = tested on: CAKI-1 renal
NCI-H522 lung = tested on: NCI-H522 lung
LOX IMVI melanoma = tested on: LOX IMVI melanoma
SR leukemia = tested on: SR leukemia

Row | Structure (SMILES) | GI50 (MALME-3M melanoma) [µM] | TGI (MALME-3M melanoma) [µM] | GI50 (UACC-257 melanoma) [µM] | TGI (UACC-257 melanoma) [µM] | GI50 (DU-145 prostate) [µM] | TGI (DU-145 prostate) [µM] | GI50 (SK-MEL-2 melanoma) [µM] | TGI (SK-MEL-2 melanoma) [µM] | GI50 (K-562 leukemia) [µM] | TGI (K-562 leukemia) [µM] | GI50 (ACHN renal) [µM] | TGI (ACHN renal) [µM] | GI50 (CAKI-1 renal) [µM] | TGI (CAKI-1 renal) [µM] | GI50 (NCI-H522 lung) [µM] | TGI (NCI-H522 lung) [µM] | TGI (LOX IMVI melanoma) [µM] | GI50 (LOX IMVI melanoma) [µM] | TGI (SR leukemia) [µM]
1 | Cn1c2ccccc2c2c(Nc3ccccc3)c3ccccc3nc21 | 15.4 | 33.9 | 33 | > 100 | 9.35 | 50.4 | 80 | > 100 | 5.11 | > 100 | 23 | 65.5 | 16.7 | 38.7 | 45.6 | > 100 | – | – | –
2 | O=S1(=O)c2ccccc2NC(c2ccc3ccccc3c2)CC1c1ccccc1F (configuration not stated) | – | > 100 | – | > 100 | – | – | – | > 100 | – | > 100 | – | > 100 | – | > 100 | – | > 100 | > 100 | – | –
3 | O=CC[C@H]1C(=O)C[C@@H]2CCC[C@@H]21 | – | > 100 | – | > 100 | – | – | – | > 100 | – | > 100 | – | > 100 | – | > 100 | – | > 100 | – | – | –
4 | C=C(CN1CCN(c2ccc(Cl)cc2F)CC1)c1ccc(C(=O)Nc2ccccc2N)cc1 | 1.92 | > 100 | 1.59 | 48.6 | 3.14 | > 100 | 6.95 | > 100 | 1.12 | > 100 | 4.02 | > 100 | 2.72 | > 100 | 2.19 | 5.95 | 8.43 | 3 | –
5 | Clc1cc2nsnc2c(Cl)n1 | – | 31.3 | – | 72.3 | – | – | – | 34 | – | 51.9 | – | > 100 | – | 24.5 | – | 36.7 | > 100 | – | –
6 | O=C1/C(=C/c2ccccc2)CN(C(=O)C(Cl)(Cl)Cl)C/C1=C\c1ccccc1 | – | 6.01 | – | 2.92 | – | – | – | 10.3 | – | 3.26 | – | 4.62 | – | – | – | 4.08 | 2.18 | – | 7.1
7 | CC1(c2ccc(F)cc2)C(C#N)C(=O)NC(=O)C1C#N (configuration not stated) | – | > 100 | – | > 100 | – | – | – | > 100 | – | > 100 | – | > 100 | – | > 100 | – | > 100 | > 100 | – | –
8 | CNS(=O)(=O)NNS(=O)(=O)c1ccc2ccccc2c1 | – | > 100 | – | > 100 | – | – | – | > 100 | – | > 100 | – | > 100 | – | > 100 | – | > 100 | > 100 | – | > 100
9 | CCOC(=O)C1=C(C)NC(=S)NC1c1ccccc1 (configuration not stated) | – | > 100 | – | > 100 | – | – | – | > 100 | – | > 75.1 | – | > 100 | – | > 41.2 | – | > 100 | > 100 | – | 50.2
10 | O=C(N/C(=C\c1ccc(/C=C(\NC(=O)c2ccccc2)c2nc3cc([N+](=O)[O-])ccc3[nH]2)cc1)c1nc2cc([N+](=O)[O-])ccc2[nH]1)c1ccccc1 | – | > 100 | – | > 100 | – | – | – | 83.3 | – | > 100 | – | > 100 | – | > 100 | – | 50 | > 100 | – | –
11 | O=C(/C=C/c1ccccc1)NC1C=Nc2ccc(Cl)cc2NC1=O (configuration not stated) | – | 85.1 | – | 87 | – | – | – | > 100 | – | 59 | – | > 100 | – | > 100 | – | 34.6 | 55.9 | – | 56.3
12 | COc1ccc(C(=O)Cn2c(C(=O)c3ccccc3)nc(-c3ccc(OC)cc3)c2-c2ccc(OC)cc2)cc1 | > 100 | > 100 | > 100 | > 100 | > 100 | > 100 | 66 | > 100 | > 100 | > 100 | > 100 | > 100 | 52.7 | > 100 | > 100 | > 100 | > 100 | > 100 | –
13 | COc1cc2c(cc1OC)-c1c3cc(O)ccc3nn[n+]1CC2 | – | – | – | – | – | – | – | – | – | > 100 | – | – | – | – | – | > 100 | > 100 | – | –
14 | CC(=O)NNc1nc(C)c(C(=O)NNC(=O)C(=O)Nc2ccc(Cl)cc2)s1 | – | > 100 | – | > 100 | – | – | – | > 100 | – | > 100 | – | > 100 | – | – | – | > 100 | > 100 | – | > 100
15 | CCCCCCCCCCCOc1ccc(C(=O)C(=O)c2ccc(OCCCCCCCCCCC)c(OCCCCCCCCCCC)c2)cc1OCCCCCCCCCCC | – | > 100 | – | > 100 | – | – | – | > 100 | – | > 100 | – | > 100 | – | > 100 | – | > 100 | > 100 | – | –
16 | CCCCOC(=O)C1OC(O[C@H]2CCC3(C)C(CCC4(C)C3CC=C3C5CC(C)(C)CCC5(C(=O)O)CC[C@]34C)C2(C)C)C(OC2OC(CO)C(O)C(O)C2O)C(OC2OC(CO)C(O)C(O)C2O)C1O (some centres not stated) | – | – | 26.2 | 62.2 | – | – | 40.9 | > 100 | 23.2 | > 100 | 20.6 | 48.5 | 33.4 | 95.4 | 43.9 | > 100 | 31.8 | 18 | –
17 | COC(CN1C(=O)c2cccc3cccc(c23)C1=O)OC | – | > 100 | – | > 100 | – | – | – | 86.3 | – | > 100 | – | > 100 | – | – | – | – | > 100 | – | > 100
18 | O=C1C=C(Cl)C(=O)C(c2ccc(Cl)cc2)=C1 | – | 39 | – | 40.7 | – | 46.5 | – | 44.3 | – | 23.8 | – | 30.3 | – | 35.1 | – | 47.4 | 35.7 | – | –
19 | N#CCCN(CCC#N)c1ccc(/C=C2\N=C(c3cc([N+](=O)[O-])ccc3Cl)OC2=O)cc1 | – | > 100 | – | 44.1 | – | – | – | 38.1 | – | 40.7 | – | > 100 | – | > 100 | – | 27.6 | 46.5 | – | 56.7
20 | O=C1C2C(C(=O)N1OS(=O)(=O)c1ccccc1)N(Cc1ccccc1)C(=O)N2Cc1ccccc1 (configuration not stated) | – | > 100 | – | > 100 | – | – | – | – | – | > 100 | – | > 100 | – | > 100 | – | > 100 | > 100 | – | > 100
